Numbers after ± are expanded uncertainties.
Assay: xn = mol fraction of the nth substance listed
Conditions: Liquid, Vibrating tube method

CCCCCCCCCCCC [dodecane] + CCCCCCCCCC
Conditions	mass density [kg/m3]
283.29 K, 100 kPa, x2 = 0	756 ± 3
283.29 K, 1000 kPa, x2 = 0	757 ± 3
283.29 K, 3000 kPa, x2 = 0	758 ± 3
283.3 K, 5000 kPa, x2 = 0	760 ± 3
283.3 K, 10000 kPa, x2 = 0	763 ± 3
283.3 K, 30000 kPa, x2 = 0	775 ± 3
283.3 K, 40000 kPa, x2 = 0	780 ± 3
283.3 K, 50000 kPa, x2 = 0	785 ± 3
283.3 K, 60000 kPa, x2 = 0	790 ± 3
283.31 K, 20000 kPa, x2 = 0	769 ± 3
283.31 K, 70000 kPa, x2 = 0	795 ± 3
283.32 K, 80000 kPa, x2 = 0	799 ± 3
283.32 K, 90000 kPa, x2 = 0	803 ± 3
283.46 K, 100 kPa, x2 = 0.4436	748 ± 3
283.47 K, 1000 kPa, x2 = 0.4436	749 ± 3
283.47 K, 5000 kPa, x2 = 0.4436	752 ± 3
283.48 K, 10000 kPa, x2 = 0.4436	755 ± 3
283.48 K, 20000 kPa, x2 = 0.4436	762 ± 3
283.48 K, 40000 kPa, x2 = 0.4436	773 ± 3
283.49 K, 30000 kPa, x2 = 0.4436	767 ± 3
283.49 K, 60000 kPa, x2 = 0.4436	783 ± 3
283.49 K, 80000 kPa, x2 = 0.4436	792 ± 3
283.49 K, 100000 kPa, x2 = 0.4436	801 ± 3
283.52 K, 100 kPa, x2 = 0.2297	752 ± 3
283.52 K, 1000 kPa, x2 = 0.2297	753 ± 3
283.52 K, 5000 kPa, x2 = 0.2297	755 ± 3
283.52 K, 10000 kPa, x2 = 0.2297	759 ± 3
283.52 K, 20000 kPa, x2 = 0.2297	765 ± 3
283.52 K, 30000 kPa, x2 = 0.2297	771 ± 3
283.52 K, 40000 kPa, x2 = 0.2297	776 ± 3
283.53 K, 60000 kPa, x2 = 0.2297	786 ± 3
283.53 K, 80000 kPa, x2 = 0.2297	796 ± 3
283.54 K, 100000 kPa, x2 = 0.2297	804 ± 3
283.57 K, 1000 kPa, x2 = 0.7841	743 ± 3
283.58 K, 100 kPa, x2 = 0.7841	742 ± 3
283.59 K, 5000 kPa, x2 = 0.7841	745 ± 3
283.6 K, 10000 kPa, x2 = 0.7841	749 ± 3
283.61 K, 100 kPa, x2 = 0.6433	745 ± 3
283.61 K, 1000 kPa, x2 = 0.6433	745 ± 3
283.61 K, 20000 kPa, x2 = 0.7841	755 ± 3
283.61 K, 30000 kPa, x2 = 0.7841	761 ± 3
283.61 K, 40000 kPa, x2 = 0.7841	767 ± 3
283.61 K, 60000 kPa, x2 = 0.7841	777 ± 3
283.61 K, 80000 kPa, x2 = 0.7841	787 ± 3
283.61 K, 100000 kPa, x2 = 0.7841	795 ± 3
283.62 K, 5000 kPa, x2 = 0.6433	748 ± 3
283.62 K, 10000 kPa, x2 = 0.6433	752 ± 3
283.62 K, 20000 kPa, x2 = 0.6433	758 ± 3
283.62 K, 30000 kPa, x2 = 0.6433	764 ± 3
283.62 K, 40000 kPa, x2 = 0.6433	770 ± 3
283.62 K, 60000 kPa, x2 = 0.6433	780 ± 3
283.62 K, 80000 kPa, x2 = 0.6433	789 ± 3
283.62 K, 100000 kPa, x2 = 0.6433	798 ± 3
293.17 K, 100 kPa, x2 = 0	749 ± 3
293.18 K, 1000 kPa, x2 = 0	750 ± 3
293.19 K, 5000 kPa, x2 = 0	753 ± 3
293.19 K, 10000 kPa, x2 = 0	756 ± 3
293.19 K, 20000 kPa, x2 = 0	763 ± 3
293.19 K, 30000 kPa, x2 = 0	769 ± 3
293.19 K, 40000 kPa, x2 = 0	774 ± 3
293.19 K, 50000 kPa, x2 = 0	780 ± 3
293.19 K, 70000 kPa, x2 = 0	789 ± 3
293.19 K, 80000 kPa, x2 = 0	794 ± 3
293.19 K, 90000 kPa, x2 = 0	798 ± 3
293.19 K, 100000 kPa, x2 = 0	802 ± 3
293.2 K, 60000 kPa, x2 = 0	785 ± 3
293.43 K, 10000 kPa, x2 = 0.4436	749 ± 3
293.43 K, 20000 kPa, x2 = 0.4436	755 ± 3
293.43 K, 30000 kPa, x2 = 0.2297	765 ± 3
293.43 K, 30000 kPa, x2 = 0.4436	761 ± 3
293.43 K, 40000 kPa, x2 = 0.2297	771 ± 3
293.43 K, 40000 kPa, x2 = 0.4436	767 ± 3
293.43 K, 60000 kPa, x2 = 0.2297	781 ± 3
293.43 K, 60000 kPa, x2 = 0.4436	778 ± 3
293.43 K, 80000 kPa, x2 = 0.4436	787 ± 3
293.43 K, 100000 kPa, x2 = 0.4436	796 ± 3
293.44 K, 100 kPa, x2 = 0.4436	741 ± 3
293.44 K, 1000 kPa, x2 = 0.4436	742 ± 3
293.44 K, 5000 kPa, x2 = 0.4436	745 ± 3
293.44 K, 20000 kPa, x2 = 0.2297	759 ± 3
293.44 K, 80000 kPa, x2 = 0.2297	790 ± 3
293.44 K, 100000 kPa, x2 = 0.2297	799 ± 3
293.45 K, 100 kPa, x2 = 0.2297	745 ± 3
293.45 K, 1000 kPa, x2 = 0.2297	746 ± 3
293.45 K, 5000 kPa, x2 = 0.2297	749 ± 3
293.45 K, 10000 kPa, x2 = 0.2297	752 ± 3
293.51 K, 100000 kPa, x2 = 0.6433	793 ± 3
293.52 K, 100 kPa, x2 = 0.6433	738 ± 3
293.52 K, 1000 kPa, x2 = 0.6433	738 ± 3
293.52 K, 5000 kPa, x2 = 0.6433	741 ± 3
293.52 K, 10000 kPa, x2 = 0.6433	745 ± 3
293.52 K, 20000 kPa, x2 = 0.6433	752 ± 3
293.52 K, 30000 kPa, x2 = 0.6433	758 ± 3
293.52 K, 40000 kPa, x2 = 0.6433	764 ± 3
293.52 K, 60000 kPa, x2 = 0.6433	774 ± 3
293.52 K, 80000 kPa, x2 = 0.6433	784 ± 3
293.53 K, 60000 kPa, x2 = 0.7841	772 ± 3
293.53 K, 80000 kPa, x2 = 0.7841	781 ± 3
293.53 K, 100000 kPa, x2 = 0.7841	790 ± 3
293.54 K, 100 kPa, x2 = 0.7841	735 ± 3
293.54 K, 1000 kPa, x2 = 0.7841	735 ± 3
293.54 K, 5000 kPa, x2 = 0.7841	738 ± 3
293.54 K, 10000 kPa, x2 = 0.7841	742 ± 3
293.54 K, 20000 kPa, x2 = 0.7841	749 ± 3
293.54 K, 30000 kPa, x2 = 0.7841	755 ± 3
293.54 K, 40000 kPa, x2 = 0.7841	761 ± 3
303.04 K, 30000 kPa, x2 = 0	762 ± 3
303.04 K, 100000 kPa, x2 = 0	797 ± 3
303.05 K, 100 kPa, x2 = 0	742 ± 3
303.05 K, 1000 kPa, x2 = 0	743 ± 3
303.05 K, 5000 kPa, x2 = 0	746 ± 3
303.05 K, 20000 kPa, x2 = 0	756 ± 3
303.05 K, 50000 kPa, x2 = 0	774 ± 3
303.05 K, 60000 kPa, x2 = 0	779 ± 3
303.05 K, 70000 kPa, x2 = 0	784 ± 3
303.05 K, 80000 kPa, x2 = 0	789 ± 3
303.05 K, 90000 kPa, x2 = 0	793 ± 3
303.06 K, 10000 kPa, x2 = 0	749 ± 3
303.06 K, 40000 kPa, x2 = 0	768 ± 3
